ChEMBL document CHEMBL1153734, “Protoxylocarpins F-H, protolimonoids from seed kernels of Xylocarpus granatum” (J Nat Prod, 2009)
pIC50: −log10 of the molar value. Activity calls are given as the source filed them. The calls are words filed in the database; no cut-off is given here.

Columns and labels:
Assay type in all cases: functional, cell-based
HepG2 = experiment: Cytotoxicity against human HepG2 cells after 3 days by MTT assay; details: for pIC50: HepG2, 72 h
KATO III cell = experiment: Cytotoxicity against human KATO III cells after 3 days by MTT assay
SW-620 = experiment: Cytotoxicity against human SW620 cells after 3 days by MTT assay
BT-474 = experiment: Cytotoxicity against human BT474 cells after 3 days by MTT assay
ChaGo = experiment: (§1) Cytotoxicity against human ChaGo cells after 3 days by MTT assay
[1] = as §1; details: 72 h

Compound | Activity (HepG2) | Activity (KATO III cell) | Activity (SW-620) | Activity (BT-474) | Activity (ChaGo) | pIC50 (HepG2) | pIC50 [1]
CC(=O)O[C@@H]1C[C@H]2C(C)(C)C(=O)C=C[C@]2(C)[C@H]2CC[C@]3(C)C(=CC[C@H]3[C@H]3CO[C@@H]([C@H](O)C(C)(C)O)C3)[C@@]21C | inactive | inactive | inactive | inactive | inactive | – | –
COC(=O)C[C@H]1C(C)(C)[C@H](O)[C@@H]2CC3=C4CC(=O)O[C@@H](c5ccoc5)[C@]4(C)CC[C@@H]3[C@@]1(C)C2=O | inactive | inactive | inactive | inactive | inactive | – | –
CC(=O)O[C@@H]1C[C@H]2C(C)(C)C(=O)C=C[C@]2(C)[C@H]2CC[C@]3(C)C(=CC[C@H]3[C@H]3CO[C@@H](C4(O)OC4(C)C)C3)[C@@]21C (stereo not given in full) | inactive | inactive | inactive | inactive | inactive | – | –
CC(=O)O[C@@H]1C[C@H]2C(C)(C)C(=O)C=C[C@]2(C)[C@H]2CC[C@]3(C)C(=CC[C@H]3[C@H]3CO[C@@H]([C@@H](O)C(C)(C)O)C3)[C@@]21C | inactive | inactive | inactive | inactive | inactive | – | –
CC1(C)C(=O)C=C[C@]2(C)[C@H]3CC[C@@]4(C)[C@H](c5ccoc5)OC(=O)[C@H]5O[C@]54[C@]3(C)[C@H](O)C[C@@H]12 [DEACETYLGEDUNIN] | – | inactive | inactive | inactive | – | 4.99 | 4.80
CC(=O)OC1OC(C2OC2(C)C)C[C@@H]1[C@H]1CC=C2C3(C)C(O)CC4C(C)(C)C(=O)CC[C@]4(C)[C@H]3CC[C@@]21C (stereo not given in full) | inactive | inactive | inactive | inactive | inactive | – | –
COC(=O)CC[C@@H]1[C@@H](C)C(=O)C([C@@H](OC(C)=O)[C@@]2(O)C(=O)CC[C@]3(C)C2=CC(=O)O[C@H]3c2ccoc2)=CC1(C)C [XYLOGRANATIN C] | – | inactive | inactive | inactive | – | – | 5.04
COC(=O)[C@H](OC(C)=O)[C@H]1[C@]2(C)C[C@]3(O)[C@@](OC(C)=O)([C@H]4O[C@@]5(C)O[C@@]6(CC[C@@]7(C)[C@H](c8ccoc8)OC(=O)C[C@@]7(O)[C@@]46O5)[C@]13C)[C@H]2OC(C)=O | inactive | inactive | inactive | inactive | inactive | – | –
CC1(C)C(=O)C=C[C@]2(C)[C@H]3CC[C@@]4(C)[C@H](c5ccoc5)OC(=O)[C@H]5O[C@]54[C@]3(C)C(=O)C[C@@H]12 [DEACETOXY-7-OXOGEDUNIN] | – | – | – | – | – | 4.79 | –
CC(=O)O[C@@H]1C[C@H]2C(C)(C)C(=O)C=C[C@]2(C)[C@H]2CC[C@]3(C)C(=CC[C@H]3[C@@H]3COC(=O)C3)[C@@]21C | inactive | inactive | inactive | inactive | inactive | – | –
COC(=O)[C@H](OC(C)=O)[C@H]1[C@]2(C)C[C@]3(O)[C@H]([C@H]2OC(C)=O)[C@H]2O[C@@]4(C)O[C@@]5(CC[C@@]6(C)[C@H](c7ccoc7)OC(=O)C[C@@]6(O)[C@@]25O4)[C@]13C | inactive | inactive | inactive | inactive | inactive | – | –
C=C1[C@@H]2CC[C@@]3(C)[C@H](c4ccoc4)OC(=O)C[C@]13O[C@H]1CC(=O)C(C)(C)[C@H](CC(=O)OC)[C@]12C | inactive | inactive | inactive | inactive | inactive | – | –
COC(=O)C[C@H]1C(C)(C)C(=O)[C@@H]2CC3=C4CC(=O)O[C@@H](c5ccoc5)[C@]4(C)CC[C@@H]3[C@@]1(C)C2=O | inactive | inactive | inactive | inactive | inactive | – | –
COC(=O)C[C@H]1C(C)(C)[C@@H]2O[C@@]34C[C@@H]2C(=O)[C@]1(C)[C@H]3CC[C@@]1(C)[C@@H](c2ccoc2)OC(=O)C[C@]14O | inactive | inactive | inactive | inactive | inactive | – | –
